According to PubChem BioAssay AID1918930 (Molecular Pharmacology Branch, DTP, NCI, 2023):
Each block holds one molecule with its values, some of them ahead of it.

Tested on: 233499-124-R-J3-PDC complex spheroid viability, % test/control
Test: Anticancer human tumor 233499-124-R-J3-PDC patient-derived colon adenocarcinoma cell line growth inhibition
Conditions: for viability, T/C: stronger effect = lower value
Description: Multicellular complex tumor spheroid response to LSD1 Inhibitor Iadademstat in combination with a variety of drugs and investigational agents in selected tumor cell lines
The current study was undertaken to assess response to LSD1 inhibitors in combination with standard-of-care drugs and investigational agents in solid tumor complex spheroid models as well as in the K-562 leukemia. Complex spheroids include a stromal component modeled by human endothelial cells (HUVEC) and fibroblasts modeled by human mesenchymal stem cells (MSCs). The concentration ranges selected for each drug and investigational agent were based upon clinically achievable concentrations if the clinical Cmax of the agent was known.
Compounds. The drugs and investigational agents used in this study are listed on Table 1. All of the agents used, including staurosporine (NSC755774) and gemcitabine (NSC613327), were obtained from the Developmental Therapeutics Program, NCI. FDA-approved anticancer drugs are available from the NCI at http://dtp.nci.nih.gov/branches/dscb/oncology_drugset_explanation.html. Drugs and investigational agents were >95% pure by proton nuclear magnetic resonance (NMR) and liquid chromatography/mass spectrometry (LC/MS). Stock solutions were prepared at 400x in DMSO, stored at -70 degrees C, and diluted in fresh medium prior to their use. The final concentration of DMSO in cell culture wells never exceeded 0.25% (v/v). The FDA-approved anticancer drug set is available from the Developmental Therapeutics Program at https://dtp.cancer.gov/organization/dscb/obtaining/available_plates.htm. All drugs and investigational agents were tested over a range starting from a high concentration at or near the clinical Cmax and decreasing in half-log increments. If the clinical Cmax for an agent had not been determined, the highest concentration tested was 10 microM.
Cell Lines. The patient-derived cancer cell (PDC) lines: 292921-168-R-J2-PDC, K24384-001-R-PDC, and 521955-158-R2-J5-PDC pancreatic carcinomas, 556581-035-R-J1 ovarian carcinoma, 324938-238-R-J1-PDC, 855422-203-R-J1-PDC and 883617-216-R-J1-PDC urothelial bladder carcinomas, 743489-274-T-PDC renal cell carcinoma, 138582-R-J1 Merkel cell tumor, K60290-347-R-J1 and K57222-313-R-J1-PDC glioblastomas, 653999-131-R-J2-PDC, LG0703-F948-PDC, and 349418-098-R-PDC non-small cell lung carcinomas, 885512-296-R-J2-PDC, 171881-019-R-J1-PDC breast carcinomas and 186277-243-T-J2-PDC and 233499-124-R-J2-PDC colon carcinomas were obtained from the NCI Patient-Derived Models Repository (PDMR, https://pdmr.cancer.gov). The established cell lines NCI/ADR-RES (RRID:CVCL_14520 and OVCAR-5 (RRID:CVCL_1628) ovarian carcinomas, 786-O (RRID:CVCL_1051) and A498 (RRID:CVCL_A498) renal cell carcinoma, NCI-H211 (ATCC, cat. CRL-5824; RRID:CVCL_1529), NCI-H196 (ATCC, cat. CRL-5823, RRID:CVCL_1509), SW 1271 (ATCC, cat. CRL-2177, RRID:CVCL_1716) and NCI-H1876 (ATCC, cat. CRL-5902, RRID:CVCL_1503) small cell lung carcinomas, MDA-MB-231 (RRID:CVCL_0062) and MDA-MB-468 (RRID:CVCL_0419)breast carcinomas (10-12). Pooled donor human umbilical vein endothelial cells (HUVEC, Lonza, cat. CC-2519) and human mesenchymal stem cells (hMSC, Lonza, cat. PT-2501) were purchased from Lonza (Walkersville, MD).
Cell Culture. All cells were maintained in an incubator at 37 degrees C and 5% CO2 with 95% humidity. The PDC lines were cultured according to standard operating procedures established by the NCI PDMR (https://pdmr.cancer.gov). Briefly all PDCs were thawed and cultured in Matrigel-coated flasks prepared with a working solution of 1X Ham's F-12 nutrient mix, without supplementation (Invitrogen, Waltham, MA, cat. 11765054), 100 U/mL penicillin-streptomycin (Invitrogen, cat. 15140122), and 2.5% Matrigel (Corning Inc., Corning, NY, cat. 354248) for the first three passages. […]

[1] = curve of first compound, second compound 0.1 µM
[2] = curve of first compound, second compound 0.316 µM
[3] = curve of first compound, second compound 1 µM
[4] = curve of first compound, second compound 3.16 µM
[5] = curve of first compound, second compound 10 µM
[6] = second compound 0.1 µM, first compound 0.00949 µM
[7] = second compound 0.1 µM, first compound 0.03 µM
[8] = second compound 0.1 µM, first compound 0.0949 µM
[9] = second compound 0.1 µM, first compound 0.3 µM
[10] = second compound 0.316 µM, first compound 0.00949 µM
[11] = second compound 0.316 µM, first compound 0.03 µM
[12] = second compound 0.316 µM, first compound 0.0949 µM
[13] = second compound 0.316 µM, first compound 0.3 µM
[14] = second compound 1 µM, first compound 0.00949 µM
[15] = second compound 1 µM, first compound 0.03 µM
[16] = second compound 1 µM, first compound 0.0949 µM
[17] = second compound 1 µM, first compound 0.3 µM
[18] = second compound 3.16 µM, first compound 0.00949 µM
[19] = second compound 3.16 µM, first compound 0.03 µM
[20] = second compound 3.16 µM, first compound 0.0949 µM
[21] = second compound 3.16 µM, first compound 0.3 µM
[22] = second compound 10 µM, first compound 0.00949 µM
[23] = second compound 10 µM, first compound 0.03 µM
[24] = second compound 10 µM, first compound 0.0949 µM
[25] = second compound 10 µM, first compound 0.3 µM
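Also: spheroids exposed to agents for one week before readout.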

Compound: Nc1ncn(C2CC(O)C(CO)O2)c(=O)n1 (configuration not stated) + NC1CC1c1ccc(-c2cccc(O)c2)cc1
IC50 [1]: > 1000 nM
IC50 [2]: > 1000 nM
IC50 [3]: > 1000 nM
IC50 [4]: > 1000 nM
IC50 [5]: > 1000 nM
viability, T/C (second compound 0.1 µM, first compound 0.00316 µM): 101%
viability, T/C (second compound 0.1 µM, first compound 0.01 µM): 98.9%
viability, T/C (second compound 0.1 µM, first compound 0.0316 µM): 86.8%
viability, T/C (second compound 0.1 µM, first compound 0.1 µM): 81.2%
viability, T/C (second compound 0.1 µM, first compound 0.316 µM): 89.6%
viability, T/C (second compound 0.1 µM, first compound 1 µM): 108%
viability, T/C (second compound 0.316 µM, first compound 0.00316 µM): 120%
viability, T/C (second compound 0.316 µM, first compound 0.01 µM): 99.5%
viability, T/C (second compound 0.316 µM, first compound 0.0316 µM): 92.2%
viability, T/C (second compound 0.316 µM, first compound 0.1 µM): 75%
viability, T/C (second compound 0.316 µM, first compound 0.316 µM): 96.9%
viability, T/C (second compound 0.316 µM, first compound 1 µM): 87.6%
viability, T/C (second compound 1 µM, first compound 0.00316 µM): 104%
viability, T/C (second compound 1 µM, first compound 0.01 µM): 89.9%
viability, T/C (second compound 1 µM, first compound 0.0316 µM): 72.9%
viability, T/C (second compound 1 µM, first compound 0.1 µM): 83.7%
viability, T/C (second compound 1 µM, first compound 0.316 µM): 69.1%
viability, T/C (second compound 1 µM, first compound 1 µM): 88.4%
viability, T/C (second compound 3.16 µM, first compound 0.00316 µM): 82.5%
viability, T/C (second compound 3.16 µM, first compound 0.01 µM): 93.2%
viability, T/C (second compound 3.16 µM, first compound 0.0316 µM): 80.4%
viability, T/C (second compound 3.16 µM, first compound 0.1 µM): 74.4%
viability, T/C (second compound 3.16 µM, first compound 0.316 µM): 74.6%
viability, T/C (second compound 3.16 µM, first compound 1 µM): 92%
viability, T/C (second compound 10 µM, first compound 0.00316 µM): 80.5%
viability, T/C (second compound 10 µM, first compound 0.01 µM): 83.9%
viability, T/C (second compound 10 µM, first compound 0.0316 µM): 80.5%
viability, T/C (second compound 10 µM, first compound 0.1 µM): 60.9%
viability, T/C (second compound 10 µM, first compound 0.316 µM): 58.1%
viability, T/C (second compound 10 µM, first compound 1 µM): 90.9%

IC50 (curve of compound): < 3.16 nM
Compound: COc1cc(Nc2ncc3c(n2)-c2ccc(Cl)cc2C(c2c(F)cccc2OC)=NC3)ccc1C(=O)O
viability, T/C (compound 0.00316 µM): 43.2%
viability, T/C (compound 0.01 µM): 61%
viability, T/C (compound 0.0316 µM): 55.2%
viability, T/C (compound 0.1 µM): 63.2%
viability, T/C (compound 0.316 µM): 63.9%
viability, T/C (compound 1 µM): 84.3%

Compound: Nc1ccn(C2OC(CO)C(O)C2(F)F)c(=O)n1 (configuration not stated) + NC1CC1c1ccc(-c2cccc(O)c2)cc1
IC50 [1]: 87.3 nM
IC50 [2]: 73.4 nM
IC50 [3]: 32.8 nM
IC50 [4]: 55.8 nM
IC50 [5]: 34.8 nM
viability, T/C (second compound 0.1 µM, first compound 0.000949 µM): 111%
viability, T/C (second compound 0.1 µM, first compound 0.003 µM): 97.9%
viability, T/C [6]: 104%
viability, T/C [7]: 72.4%
viability, T/C [8]: 49.4%
viability, T/C [9]: 45.2%
viability, T/C (second compound 0.316 µM, first compound 0.000949 µM): 85.1%
viability, T/C (second compound 0.316 µM, first compound 0.003 µM): 96.1%
viability, T/C [10]: 75.3%
viability, T/C [11]: 69.9%
viability, T/C [12]: 41%
viability, T/C [13]: 41.7%
viability, T/C (second compound 1 µM, first compound 0.000949 µM): 96.1%
viability, T/C (second compound 1 µM, first compound 0.003 µM): 84.7%
viability, T/C [14]: 78.1%
viability, T/C [15]: 49.2%
viability, T/C [16]: 41.2%
viability, T/C [17]: 38.7%
viability, T/C (second compound 3.16 µM, first compound 0.000949 µM): 92.3%
viability, T/C (second compound 3.16 µM, first compound 0.003 µM): 95.6%
viability, T/C [18]: 72.7%
viability, T/C [19]: 60.1%
viability, T/C [20]: 39.1%
viability, T/C [21]: 46.2%
viability, T/C (second compound 10 µM, first compound 0.000949 µM): 83.5%
viability, T/C (second compound 10 µM, first compound 0.003 µM): 69.4%
viability, T/C [22]: 74.8%
viability, T/C [23]: 52.5%
viability, T/C [24]: 32.8%
viability, T/C [25]: 35.1%

Compound: NS(=O)(=O)OCC1CC(n2ccc3c(NC4CCc5ccccc54)ncnc32)CC1O (configuration not stated) + NC1CC1c1ccc(-c2cccc(O)c2)cc1
IC50 [1]: 46.8 nM
IC50 [2]: 58.5 nM
IC50 [3]: 42.3 nM
IC50 [4]: 52.4 nM
IC50 [5]: 46.4 nM
viability, T/C [6]: 92.5%
viability, T/C [7]: 63.6%
viability, T/C [8]: 28.6%
viability, T/C [9]: 6.14%
viability, T/C (second compound 0.1 µM, first compound 0.949 µM): 3.11%
viability, T/C (second compound 0.1 µM, first compound 3 µM): 2.93%
viability, T/C [10]: 100%
viability, T/C [11]: 76.9%
viability, T/C [12]: 31.2%
viability, T/C [13]: 5.03%
viability, T/C (second compound 0.316 µM, first compound 0.949 µM): 4.27%
viability, T/C (second compound 0.316 µM, first compound 3 µM): 3.91%
viability, T/C [14]: 92.3%
viability, T/C [15]: 59.1%
viability, T/C [16]: 28.5%
viability, T/C [17]: 9.59%
viability, T/C (second compound 1 µM, first compound 0.949 µM): 4.05%
viability, T/C (second compound 1 µM, first compound 3 µM): 3.47%
viability, T/C [18]: 90.8%
viability, T/C [19]: 68.8%
viability, T/C [20]: 29.9%
viability, T/C [21]: 9.96%
viability, T/C (second compound 3.16 µM, first compound 0.949 µM): 4.13%
viability, T/C (second compound 3.16 µM, first compound 3 µM): 3.43%
viability, T/C [22]: 84%
viability, T/C [23]: 63.9%
viability, T/C [24]: 27.1%
viability, T/C [25]: 8.93%
viability, T/C (second compound 10 µM, first compound 0.949 µM): 5.35%
viability, T/C (second compound 10 µM, first compound 3 µM): 2.93%
